Where two headings read alike, the source gives them in different places.
Target: T1, Cav2.2 (Homo sapiens, UniProt Q00975)
T1 construct: expressed in transfected cells; host or cells: HEK-293T/17 (transient, FuGENE 6)
Test: HEK assay (whole-cell patch clamp, transiently transfected HEK-293T/17 cells, pulses P1 and P5)
Type: cell-based
Conditions: holding potential −100 mV
Description: HEK-293T/17 cells were transiently transfected in a similar manner as described in FuGENE 6 Package Insert Version 7, April 2002, Roche Applied Science, Indianapolis, Ind. The cells were plated at 2.5×10^5 cells in 2 mL in a 6-well plate, incubated for one night, and achieved a ˜30-40% confluence. In a small sterile tube, sufficient serum-free medium was added as diluent for FuGENE Transfection Reagent (Roche Applied Science, Indianapolis, Ind.) to a total volume of 100 μL. To this medium was added 3 μL of FuGENE 6 Reagent. The mixture was tapped gently to mix. To the prediluted FuGENE 6 Reagent was added 2 μg of DNA solution (0.8-2.0 μg/μL). The DNA/Fugene 6 mixture was gently pipeted to mix the contents and incubated for about 15 minutes at room temperature. The complex mixture was then added to the HEK-293T/17 cells, distributed around the well, and swirled to ensure even dispersal. The cells were returned to the incubator for 24 hours. The transfected cells were then replated at density 2.5×10^5 in a 35 mm dish with 5 glass coverslips and grew in low serum (1%) media for 24 hours. Coverslips with isolated cells were then transferred into a chamber, and calcium channel (e.g., L-type, N-type, etc.) current or other currents for counter screening were recorded from the transiently transfected HEK-293T/17 cells.
The whole-cell voltage clamp configuration of the patch clamp technique was employed to evaluate voltage-dependent calcium currents essentially as described by Thompson and Wong (1991), J. Physiol., 439: 671-689, the entire disclosure of which is herein incorporated by reference. To record calcium channel (e.g., L-type, N-type, etc.) currents for evaluation of inhibitory potency of compounds (steady-state concentration-response analysis), five pulses of 20-30 ms voltage steps to about +10 mV (the peak of the current voltage relationship) were delivered at five Hz every 30 second from a holding potential at −100 mV. In order to obtain an estimate of the degree of use-dependent block of the test compounds, IC50 values were determined at the first and fifth pulse of the train (P1 and P5, respectively, in Table 2). Compound evaluations were carried out essentially as described by Sah D. W. and Bean B. P. (1994), Mol. Pharmacol., 45:84-92, the entire disclosure of which is herein incorporated by reference.

[1] = fifth pulse (P5) of 5 Hz train, read-out: HEK Cav2.2 P5 IC50
[2] = first pulse (P1) of 5 Hz train, read-out: HEK Cav2.2 P1 IC50

T1 sequence (Q00975 whole entry): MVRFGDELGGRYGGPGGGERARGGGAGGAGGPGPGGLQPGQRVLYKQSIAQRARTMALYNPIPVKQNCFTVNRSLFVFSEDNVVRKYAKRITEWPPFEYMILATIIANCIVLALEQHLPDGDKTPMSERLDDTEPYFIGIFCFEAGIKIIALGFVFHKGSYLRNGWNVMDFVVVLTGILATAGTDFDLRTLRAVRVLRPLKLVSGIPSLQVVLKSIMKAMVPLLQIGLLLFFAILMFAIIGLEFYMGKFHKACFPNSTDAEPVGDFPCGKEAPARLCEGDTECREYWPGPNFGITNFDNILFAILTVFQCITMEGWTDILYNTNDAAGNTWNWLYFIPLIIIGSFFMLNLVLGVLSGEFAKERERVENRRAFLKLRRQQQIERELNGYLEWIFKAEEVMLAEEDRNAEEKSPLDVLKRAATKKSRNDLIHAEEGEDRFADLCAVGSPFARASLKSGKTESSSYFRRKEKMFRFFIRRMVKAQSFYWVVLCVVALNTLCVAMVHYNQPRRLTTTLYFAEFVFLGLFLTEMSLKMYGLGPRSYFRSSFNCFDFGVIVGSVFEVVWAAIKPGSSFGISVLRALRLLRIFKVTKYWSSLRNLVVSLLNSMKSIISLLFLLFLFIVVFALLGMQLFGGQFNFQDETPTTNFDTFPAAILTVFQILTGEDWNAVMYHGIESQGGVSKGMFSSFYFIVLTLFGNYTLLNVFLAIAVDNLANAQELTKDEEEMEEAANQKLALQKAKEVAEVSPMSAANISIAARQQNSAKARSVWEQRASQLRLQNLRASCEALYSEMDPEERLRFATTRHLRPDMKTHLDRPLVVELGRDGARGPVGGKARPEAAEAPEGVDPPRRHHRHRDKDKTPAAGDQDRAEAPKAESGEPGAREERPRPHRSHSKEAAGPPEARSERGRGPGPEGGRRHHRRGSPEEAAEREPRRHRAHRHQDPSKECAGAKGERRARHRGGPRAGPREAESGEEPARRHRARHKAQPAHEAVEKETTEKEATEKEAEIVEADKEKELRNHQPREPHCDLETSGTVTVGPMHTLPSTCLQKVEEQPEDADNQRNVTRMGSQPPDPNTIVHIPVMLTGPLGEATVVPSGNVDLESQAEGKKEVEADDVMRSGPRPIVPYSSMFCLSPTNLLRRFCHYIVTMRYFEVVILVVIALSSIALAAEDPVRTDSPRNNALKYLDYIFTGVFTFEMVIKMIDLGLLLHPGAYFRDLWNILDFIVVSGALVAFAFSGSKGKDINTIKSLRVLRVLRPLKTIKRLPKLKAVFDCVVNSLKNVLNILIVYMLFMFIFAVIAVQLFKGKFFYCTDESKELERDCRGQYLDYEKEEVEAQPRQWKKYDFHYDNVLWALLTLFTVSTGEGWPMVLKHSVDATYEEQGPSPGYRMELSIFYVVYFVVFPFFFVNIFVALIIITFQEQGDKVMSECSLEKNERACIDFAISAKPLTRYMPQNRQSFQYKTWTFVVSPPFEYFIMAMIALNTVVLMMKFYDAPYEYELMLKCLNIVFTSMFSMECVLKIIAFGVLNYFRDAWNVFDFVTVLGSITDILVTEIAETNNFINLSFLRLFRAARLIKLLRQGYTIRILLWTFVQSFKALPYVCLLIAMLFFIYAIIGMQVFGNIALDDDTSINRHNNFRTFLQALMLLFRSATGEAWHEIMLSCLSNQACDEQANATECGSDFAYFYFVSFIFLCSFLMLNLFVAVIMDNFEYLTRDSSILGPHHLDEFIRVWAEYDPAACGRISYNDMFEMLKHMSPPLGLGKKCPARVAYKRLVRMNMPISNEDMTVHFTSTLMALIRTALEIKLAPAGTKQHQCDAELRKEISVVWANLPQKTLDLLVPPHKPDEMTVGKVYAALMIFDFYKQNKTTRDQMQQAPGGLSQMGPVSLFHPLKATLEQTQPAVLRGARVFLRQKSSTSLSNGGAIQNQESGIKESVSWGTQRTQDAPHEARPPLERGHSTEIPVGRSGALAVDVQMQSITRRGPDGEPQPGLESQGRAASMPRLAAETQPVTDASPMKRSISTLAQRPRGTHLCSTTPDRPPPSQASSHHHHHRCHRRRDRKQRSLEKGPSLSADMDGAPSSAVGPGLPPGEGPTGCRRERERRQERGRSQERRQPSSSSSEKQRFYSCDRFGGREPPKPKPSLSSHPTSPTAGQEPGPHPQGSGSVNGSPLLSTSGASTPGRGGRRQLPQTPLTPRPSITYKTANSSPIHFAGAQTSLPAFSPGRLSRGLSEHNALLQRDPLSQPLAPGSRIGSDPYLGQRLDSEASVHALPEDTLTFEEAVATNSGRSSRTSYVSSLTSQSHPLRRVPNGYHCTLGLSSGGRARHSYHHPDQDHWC
T1 sequence (P54284 whole entry partner): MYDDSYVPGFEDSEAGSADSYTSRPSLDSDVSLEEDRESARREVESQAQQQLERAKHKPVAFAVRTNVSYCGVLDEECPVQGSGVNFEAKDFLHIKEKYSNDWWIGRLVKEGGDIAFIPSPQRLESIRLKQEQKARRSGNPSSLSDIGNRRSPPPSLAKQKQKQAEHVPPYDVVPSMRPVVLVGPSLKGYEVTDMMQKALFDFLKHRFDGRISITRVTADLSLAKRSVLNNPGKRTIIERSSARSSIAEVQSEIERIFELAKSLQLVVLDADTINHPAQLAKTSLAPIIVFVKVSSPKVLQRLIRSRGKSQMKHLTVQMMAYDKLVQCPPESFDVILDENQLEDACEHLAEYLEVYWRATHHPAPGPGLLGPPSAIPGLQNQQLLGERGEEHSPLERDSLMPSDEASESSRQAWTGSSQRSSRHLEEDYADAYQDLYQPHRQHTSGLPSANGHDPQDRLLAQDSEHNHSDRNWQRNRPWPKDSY
T1 sequence (P54289 25-946 partner limits assumed): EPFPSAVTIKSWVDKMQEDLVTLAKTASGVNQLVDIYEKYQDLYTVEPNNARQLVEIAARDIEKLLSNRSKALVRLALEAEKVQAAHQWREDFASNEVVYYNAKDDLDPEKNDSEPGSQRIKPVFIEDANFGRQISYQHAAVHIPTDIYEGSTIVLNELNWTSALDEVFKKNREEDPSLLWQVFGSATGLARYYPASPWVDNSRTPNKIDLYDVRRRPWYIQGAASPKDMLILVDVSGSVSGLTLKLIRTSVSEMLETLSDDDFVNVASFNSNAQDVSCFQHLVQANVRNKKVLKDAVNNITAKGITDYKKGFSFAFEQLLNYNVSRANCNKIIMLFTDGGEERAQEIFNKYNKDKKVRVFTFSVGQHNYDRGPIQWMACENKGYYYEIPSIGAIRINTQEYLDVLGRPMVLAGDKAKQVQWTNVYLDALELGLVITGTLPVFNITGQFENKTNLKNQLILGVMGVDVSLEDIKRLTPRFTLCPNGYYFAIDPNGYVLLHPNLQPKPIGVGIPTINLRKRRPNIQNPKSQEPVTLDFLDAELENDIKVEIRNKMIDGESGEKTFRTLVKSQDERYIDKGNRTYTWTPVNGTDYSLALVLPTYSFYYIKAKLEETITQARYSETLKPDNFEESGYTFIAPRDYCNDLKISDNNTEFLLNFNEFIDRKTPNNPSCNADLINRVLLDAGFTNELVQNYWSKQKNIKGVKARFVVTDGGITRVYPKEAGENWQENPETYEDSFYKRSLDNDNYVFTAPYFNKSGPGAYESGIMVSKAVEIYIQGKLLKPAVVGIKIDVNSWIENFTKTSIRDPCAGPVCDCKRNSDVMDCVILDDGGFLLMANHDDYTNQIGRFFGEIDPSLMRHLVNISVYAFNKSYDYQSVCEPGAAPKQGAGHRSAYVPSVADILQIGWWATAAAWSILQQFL
T1 sequence (P54289 947-1103 partner limits assumed): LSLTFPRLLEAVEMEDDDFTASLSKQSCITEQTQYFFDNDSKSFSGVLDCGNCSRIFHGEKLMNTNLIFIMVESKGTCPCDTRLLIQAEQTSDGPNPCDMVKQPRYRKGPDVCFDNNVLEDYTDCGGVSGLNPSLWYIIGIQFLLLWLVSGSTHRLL

IC50 [1] | IC50 [2] | Compound
0.6 µM | 1.7 µM | CC(C)(C)C(=O)N(Cc1ccc(N2CC[C@@H](Oc3ccccn3)C2)nc1)c1ccc(F)cc1 [Compound 55, N-(4-Fluorophenyl)-2,2-dimethyl-N-{6-[3-(pyridin-2-yloxy)-pyrroldiin-1-yl]-pyridin-3-ylmethyl}-propionamide]
2.8 µM | 6 µM | CNC1CCN(c2ccc(CN(C(=O)C(C)(C)C)c3ccc(F)cc3)cn2)C1 (stereo not shown) [Compound 56, N-(4-Fluorophenyl)-2,2-dimethyl-N-[6-(3-methylamino-pyrrolidin-1-yl)-pyridin-3-ylmethyl]-propionamide]
0.9 µM | 4.9 µM | CCN(CCc1cccnc1)c1ccc(CN(C(=O)C(C)(C)C)c2ccc(F)cc2)cn1 [Compound 58, N-{6-[Ethyl-(2-pyridin-3-yl-ethyl)-amino]-pyridin-3-ylmethyl}-N-(4-fluorophenyl)-2,2-dimethyl-propionamide]
3.8 µM | 29.1 µM | CC(C)(C)C(=O)N(Cc1ccc(NCCc2cccnc2)nc1)c1ccc(F)cc1 [Compound 59, N-(4-Fluorophenyl)-2,2-dimethyl-N-[6-(2-pyridin-3-yl-ethylamino)-pyridin-3-ylmethyl]-propionamide]
1.1 µM | 3.5 µM | CN(Cc1ccco1)c1ccc(CN(C(=O)C(C)(C)C)c2ccc(F)cc2)cn1 [Compound 66, N-(4-Fluorophenyl)-N-[6-(furan-2-ylmethyl-methyl-amino)-pyridin-3-ylmethyl]-2,2-dimethyl-propionamide]
3.7 µM | 9.3 µM | CC(C)(C)Nc1ccc(CN(C(=O)C(C)(C)C)c2ccc(F)cc2)cn1 [Compound 67, N-(6-tert-Butylamino-pyridin-3-ylmethyl)-N-(4-fluorophenyl)-2,2-dimethyl-propionamide]
2.8 µM | 12.8 µM | CN(c1ccc(CN(C(=O)C(C)(C)C)c2ccc(F)cc2)cn1)C1CC1 [Compound 74, N-[6-(Cyclopropyl-methyl-amino)-pyridin-3-ylmethyl]-N-(4-fluorophenyl)-2,2-dimethyl-propionamide]
11 µM | 47.3 µM | CC(C)(C)C(=O)N(Cc1csc(-c2ccncc2)n1)c1ccc(F)cc1 [Compound 75, N-(4-Fluorophenyl)-2,2-dimethyl-N-(2-pyridin-4-yl-thiazol-4-ylmethyl)-propionamide]
7.2 µM | 14.2 µM | CC(C)(C)C(=O)N(Cc1ccc(NC2CC2)nc1)c1ccc(F)cc1 [Compound 78, N-(6-Cyclopropylamino-pyridin-3-ylmethyl)-N-(4-fluorophenyl)-2,2-dimethyl-propionamide]

More lines, now with the values behind:

Compound | IC50 [1] | IC50 [2]
CCN(CC)c1ccc(CN(C(=O)C(C)(C)n2cc(Cc3ccccc3)nn2)c2ccc(F)cc2)cn1 [Compound 63, 2-(4-Benzyl-[1,2,3]triazol-1-yl)-N-(6-diethylamino-pyridin-3-ylmethyl)-N-(4-fluorophenyl)-isobutyramide] | 0.7 µM | 2.7 µM
CN(c1ccccc1)c1nc(CN(C(=O)C(C)(C)C)c2ccc(F)cc2)cs1 [Compound 65, N-(4-Fluorophenyl)-2,2-dimethyl-N-[2-(methyl-phenyl-amino)-thiazol-4-ylmethyl]-propionamide] | 0.6 µM | 1.8 µM
COc1ccc(OCc2nc(CN(C(=O)C(C)(C)C)c3ccc(F)cc3)cs2)cc1 [Compound 68, N-(4-Fluorophenyl)-N-[2-(4-methoxy-phenoxymethyl)-thiazol-4-ylmethyl]-2,2-dimethyl-propionamide] | 1.2 µM | 3.2 µM
CC(C)c1cccc(N(Cc2csc(N3CCCCC3)n2)C(=O)C(C)(C)C)c1 [Compound 71, N-(3-Isopropyl-phenyl)-2,2-dimethyl-N-(2-piperidin-1-yl-thiazol-4-ylmethyl)-propionamide] | 0.5 µM | 2.4 µM
CCC(C)(C)C(=O)N(Cc1csc(N2CCOCC2)n1)c1ccc(F)cc1 [Compound 73, N-(4-Fluorophenyl)-2,2-dimethyl-N-(2-morpholin-4-yl-thiazol-4-ylmethyl)-butyramide] | 8.5 µM | 33.8 µM
CN1CCN(c2ncc(CN(C(=O)C(C)(C)C)c3ccc(F)cc3)s2)CC1 [Compound 76, N-(4-Fluorophenyl)-2,2-dimethyl-N-[2-(4-methyl-piperazin-1-yl)-thiazol-5-ylmethyl]-propionamide] | 5.2 µM | 29 µM
CC(C)(C)C(=O)N(Cc1csc(N2CCCC2)n1)c1ccc(F)cc1 [Compound 77, N-(4-Fluorophenyl)-2,2-dimethyl-N-(2-pyrrolidin-1-yl-thiazol-4-ylmethyl)-propionamide] | 2.6 µM | 19.1 µM
CN(c1ccc(F)cc1)c1nc(CN(C(=O)C(C)(C)C)c2ccc(F)cc2)cs1 [Compound 79, N-(4-Fluorophenyl)-N-{2-[(4-fluorophenyl)-methyl-amino]-thiazol-4-ylmethyl}-2,2-dimethyl-propionamide] | 0.1 µM | 0.3 µM
COc1ccc(N(C)c2nc(CN(C(=O)C(C)(C)C)c3ccc(F)cc3)cs2)cc1 [Compound 80, N-(4-Fluorophenyl)-N-{2-[(4-methoxy-phenyl)-methyl-amino]-thiazol-4-ylmethyl}-2,2-dimethyl-propionamide] | 0.6 µM | 2.4 µM
CN(c1ccc(F)cc1)c1nc(CN(C(=O)C(C)(C)C)c2ccc(F)cn2)cs1 [Compound 82, N-{2-[(4-Fluorophenyl)-methyl-amino]-thiazol-4-ylmethyl}-N-(5-fluoro-pyridin-2-yl)-2,2-dimethyl-propionamide] | 2.2 µM | 12.1 µM
CN(C)c1ccc(N(Cc2csc(N3CCCCC3)n2)C(=O)C(C)(C)C)cc1 [Compound 86, N-(4-Dimethylamino-phenyl)-2,2-dimethyl-N-(2-piperidin-1-yl-thiazol-4-ylmethyl)-propionamide] | 3.1 µM | 12.6 µM
CCN(c1ccc(CN(C(=O)C(C)(C)C)c2ccc(F)cc2)cc1)C1CC1 [Compound 87, N-[4-(Cyclopropyl(ethyl)amino)-benzyl]-N-(4-fluorophenyl)-2,2-dimethyl-propionamide] | 1.4 µM | 4.2 µM
CCN(CC)c1ccc(N(Cc2csc(N(C)c3ccc(F)cc3)n2)C(=O)C(C)(C)C)cc1 [Compound 88, N-(4-Diethylamino-phenyl)-N-{2-[(4-fluorophenyl)-methyl-amino]-thiazol-4-ylmethyl}-2,2-dimethyl-propionamide] | 0.1 µM | 0.4 µM
CN(C)c1ccc(N(Cc2csc(N(C)c3ccc(C(F)(F)F)cc3)n2)C(=O)C(C)(C)C)cc1 [Compound 89, N-(4-Dimethylamino-phenyl)-2,2-dimethyl-N-{2-[methyl-(4-trifluoromethyl-phenyl)-amino]-thiazol-4-ylmethyl}-propionamide] | 0.3 µM | 1.1 µM
CCN(CC)c1ccc(CN(C(=O)C(C)(C)CC)c2ccc(N(C)C)cc2)cc1 [Compound 90, N-(4-Diethylaminobenzyl)-N-(4-dimethylamino-phenyl)-2,2-dimethyl-butyramide] | 0.8 µM | 2.2 µM
CCN(CC)c1ccc(CN(C(=O)CCC(C)C)c2ccc(N(C)C)cc2)cc1 [Compound 91, 4-Methyl-pentanoic acid (4-Diethylaminobenzyl)-(4-dimethylamino-phenyl)-amide] | 0.6 µM | 1 µM
CCN(c1cccc(CN(C(=O)C(C)(C)C)c2ccc(F)cc2)n1)C1CC1 [Compound 92, N-[6-(Cyclopropyl(ethyl)amino)-pyridin-2-ylmethyl]-N-(4-fluorophenyl)-2,2-dimethyl-propionamide] | 0.8 µM | 1.8 µM
CCN(CC)c1ccc(CN(C(=O)/C=C/C(C)C)c2ccc(N(C)C)cc2)cc1 [Compound 94, 4-Methyl-pent-2-enoic acid (4-Diethylaminobenzyl)-(4-dimethylamino-phenyl)-amide] | 0.7 µM | 1.8 µM
CCN(CC)c1nc(CN(C(=O)CCC(C)C)c2ccc(N(C)C)cc2)cs1 [Compound 95, 4-Methyl-pentanoic acid (2-diethylamino-thiazol-4-ylmethyl)-(4-dimethylamino-phenyl)-amide] | 2.3 µM | 7.9 µM
CCN(CC)c1nc(CN(C(=O)C(C)(C)CC)c2ccc(N(C)C)cc2)cs1 [Compound 96, N-(2-Diethylamino-thiazol-4-ylmethyl)-N-(4-dimethyalmino-phenyl)-2,2-dimethyl-butyramide] | 1.1 µM | 4.5 µM

Source: patent publication US20100267697A1, “ION CHANNEL MODULATORS” (Wyeth, priority 2006, published 2010)
